According to article PMC8700061, “Fragment-Sized and Bidentate (Immuno)Proteasome Inhibitors Derived from Cysteine and Threonine Targeting Warheads” (Cells, 2021):
Marks after values point to notes of the source that are not given here.

Tests used:
β2i subunit of human iCP = molecular target: T1, β2i subunit of human iCP (Homo sapiens, UniProt P40306+P49720); assay: Residual β2i activity, Boc-LRR-AMC; assay type: biochemical; conditions: 10 µM, PA28α
T1 construct: purchased Boston Biochem, Inc., Cambridge, MA, USA
Method: (§1) Residual activity measurements were performed at 10 μM final concentrations in the assay buffer (0.01% SDS, 50 mM Tris-HCl, 0.5 mM EDTA, pH 7.4). Stock solutions of the compounds were prepared in DMSO. To 50 μL of each compound in buffer, 25 μL of 0.8 nM human iCP or human cCP (both from Boston Biochem, Inc., Cambridge, MA, USA) were added. After incubation at 37 °C for 30 min, the reaction was started by adding of 25 μL of 100 μM relevant fluorogenic substrate: acetyl-Nle-Pro-Nle-Asp-AMC (Ac-nLPnLD-AMC, (Bachem, Bubendorf, Switzerland)) for β1, acetyl-Pro-Ala-Leu-7-amino-4-methylcoumarin (Ac-PAL-AMC, (Boston Biochem, Inc., Cambridge, MA, USA)) for β1i, t-butyloxycarbonyl-Leu-Arg-Arg-7-amino-4-methylcoumarin (Boc-LRR-AMC, (Bachem, Bubendorf, Switzerland)) for β2 and β2i, succinyl-Leu-Leu-Val-Tyr-7-amino-4-methylcoumarin (Suc-LLVY-AMC) (Bachem, Bubendorf, Switzerland) for β5 and β5i. Reaction progress was recorded on BioTek Synergy HT microplate reader by monitoring fluorescence at 460 nm (λex = 360 nm) for 90 min at 37 °C. The initial linear ranges were used to calculate velocity and determine residual activity. In the case of evaluation of β1, βi, β2, and β2i activities, the assay buffer was modified by replacing SDS with the proteasomal activator PA28α (Boston Biochem, Inc., Cambridge, MA, USA).

β2 subunit of human cCP = molecular target: T2, β2 subunit of human cCP (Homo sapiens, UniProt P49720+Q99436); assay: Residual β2 activity, Boc-LRR-AMC; assay type: biochemical; conditions: 10 µM, PA28α
T2 construct: purchased Boston Biochem, Inc., Cambridge, MA, USA
Method: as §1

β1i subunit of human iCP = molecular target: T3, β1i subunit of human iCP (Homo sapiens, UniProt P28065+P40306); assay: Inhibition of β1i activity (RA, IC50), Ac-PAL-AMC; assay type: biochemical; conditions: PA28α; for IC50: 30 min pre-incubation
T3 construct: purchased Boston Biochem, Inc., Cambridge, MA, USA
Method: as §1
(§2) Final assay mixtures contained 0.2 nM human iCP or 0.2 nM human cCP in assay buffer (0.01% SDS (or PA28α in cases of β1, β1i subunits), 50 mM Tris-HCl, 0.5 mM EDTA, pH 7.4). Inhibitors were dissolved in DMSO and added to the black 96-well plates for at least eight different concentrations (the final concentration of DMSO was not more than 1%). After 30 min of incubation at 37 °C, the reaction was started by adding the substrate Suc-LLVY-AMC (for β5 and β5i) or Ac-nLPnLD-AMC (for β1) or Ac-PAL-AMC (for β1i). Fluorescence was monitored at 460 nm (λex = 360 nm) for 90 min at 37 °C. The progress of the reactions was recorded and the initial linear ranges were used to calculate the velocity. IC50 values were calculated using GraphPadPrism (GraphPad Software, San Diego, CA, USA) and are means from at least three independent determinations.

β1 subunit of human cCP = molecular target: T4, β1 subunit of human cCP (Homo sapiens, UniProt P28072+Q99436); assay: Inhibition of β1 activity (RA, IC50), Ac-nLPnLD-AMC; assay type: biochemical; conditions: PA28α; for β1 (RA [%]): 10 µM, Table 3
T4 construct: purchased Boston Biochem, Inc., Cambridge, MA, USA
Method: as §1, §2

[1] = UV-Vis-based stability assay in buffer; assay type: physicochemical; conditions: after 1 h, assay buffer pH 7.4, 37 °C, 50 µM
Method: The aqueous stability of all compounds was determined spectrophotometrically by following the changes in the absorption spectra of the compounds. The buffer solution (50 mM Tris-HCl, 0.5 mM EDTA, pH 7.4) was pre-incubated at 37 °C. Aliquots of the compounds studied (1 mM in DMSO) were transferred to a 96-well flat-bottom UV-transparent microplate (Corning, CLS3635, Corning Inc, Corning, NY, USA) containing the buffer solution to obtain a 50 μM solution containing 5% DMSO (final volume, 300 μL). The plate was incubated without lid at 37 °C in a plate reader (Synergy H4, BioTek Instruments, Inc., Santa Clara, CA, USA) and the absorbance spectrum (244–400 nm) was acquired in sweep mode after 0, 15, 30, 60, 120, 180, and 240 min using a discontinuous kinetic procedure in Gen5 software (BioTek Instruments, Inc., Santa Clara, CA, USA). The time required to read the entire plate was 3 min. To determine the baseline, the compound solution was replaced with pure DMSO and subtracted from each reading. Compounds with an absorbance maximum of less than 0.20 AU were not evaluated using these assays due to the high experimental error. For other compounds, the relative absorbance difference between the first time point and 60 min at the most responsive wavelength was calculated. If the relative absorbance difference for the compound in the buffer was below 0.1, between 0.1–0.2, and above 0.2, the compound was classified as stable, intermediate, and unstable, respectively.

[2] = HPLC-based stability assay in PBS; assay type: physicochemical; conditions: PBS pH 7.4
Method: (§3) GSH reactivity assay was performed as described by Petri et al.; 500 μM solution of compound (PBS buffer pH 7.4, 10% MeCN, 250 μL) with 200 μM solution of indoprofen as internal standard were added to 10 mM GSH solution (dissolved in PBS buffer, 250 μL) in a 1:1 ratio. The final concentration was 250 μM compound, 100 μM indoprofen, 5 mM GSH and 5% MeCN (500 μL). The final mixture was analyzed by HPLC after 0, 1, 2, 4, 8, 12, 24, 48, and 72 h. The degradation kinetics were also studied using the method described in [24], except that pure PBS buffer was used instead of GSH solution. In this experiment, the final concentration of the mixture was 250 μM fragment, 100 μM indoprofen and 5% MeCN. The area under the curve (AUC) values were determined by integrating the HPLC spectra and then corrected with the internal standard.

β5 subunit of human cCP = molecular target: T5, β5 subunit of human cCP (Homo sapiens, UniProt P20618+P28074); assay: Inhibition of β5 activity (RA, IC50), Suc-LLVY-AMC; assay type: biochemical; conditions: 30 min pre-incubation, SDS
T5 construct: purchased Boston Biochem, Inc., Cambridge, MA, USA
Method: as §1, §2

β5i subunit of human iCP = molecular target: T6, β5i subunit of human iCP (Homo sapiens, UniProt P20618+P28062); assay: Inhibition of β5i activity (RA at 10 µM, IC50, IC50 shift), Suc-LLVY-AMC; assay type: biochemical; conditions: for IC50 / RA (%) at 10 µM, β5i: 30 min pre-incubation, SDS activator; for IC50: read-out: IC50 (µM), β5i; for Group efficiency (GE): ΔpIC50/ΔNheavy with compound 1 as reference; for RA (%) at 10 µM, β5i: 10 µM compound
T6 construct: purchased Boston Biochem, Inc., Cambridge, MA, USA
Method: as §1
as §2, with “After 30 min of incubation at 37 °C, the reaction was started by adding the substrate Suc-LLVY-AMC (for β5 and β5i) or Ac-nLPnLD-AMC (for β1) or Ac-PAL-AMC (for β1i).” left out

GSH = assay: HPLC-based GSH reactivity assay; assay type: physicochemical; conditions: 5 mM glutathione (GSH) in PBS buffer; 250 µM compound, 5 mM GSH, PBS pH 7.4; read-out: Reactivity with GSH (HPLC-based assay), t1/2
Method: as §3, with “The final concentration was 250 μM compound, 100 μM indoprofen, 5 mM GSH and 5% MeCN (500 μL).” left out, “In this experiment, the final concentration of the mixture was 250 μM fragment, 100 μM indoprofen and 5% MeCN.” left out

| Stability in Buffer (HPLC-based assay) [2] | Compound | Stability in Buffer (UV-Vis-based assay) [1] | further results |
| --- | --- | --- | --- |
| – | CC(C)C[C@H](NC(=O)[C@H](Cc1ccccc1)NC(=O)c1cnccn1)B(O)O [Bortezomib, reference compound] | – | β2i (RA [%]) (β2i subunit of human iCP; Table 3): 16 ± 5%; β2 (RA [%]) (β2 subunit of human cCP; Table 3): 62 ± 9%; remaining activity at 10 µM (β1i subunit of human iCP; 10 µM, Table 3, read-out: β1i residual activity at 10 µM): 0%; β1 (RA [%]) (β1 subunit of human cCP): 0% |
| – | N#Cc1nc2cc(N)ccc2o1 [Compound 21] | stable ^c (relative absorbance difference for the compound in the buffer was below 0.1) | – |
| stable | COc1ccc2nc(C#N)oc2c1 [Compound 8] | intermediate (between 0.1–0.2) | β2i (RA [%]) (β2i subunit of human iCP; Table 3): NA (NA, Not active (RA above 90%)); β5 (RA [%]) at 10 µM (β5 subunit of human cCP): 74% ^b; IC50 (β5i subunit of human iCP): 11 ± 6 µM; Group efficiency (GE) (β5i subunit of human iCP): 0.44; β2 (RA [%]) (β2 subunit of human cCP; Table 3): NA (NA, Not active (RA above 90%)); IC50 (β1i subunit of human iCP): 69 µM; β1 (RA [%]) (β1 subunit of human cCP): NA (NA, Not active (RA above 90%)) |
| – | N#Cc1nc2c(NC(=O)c3ccccc3)cccc2o1 [Compound 24] | stable ^c (relative absorbance difference for the compound in the buffer was below 0.1) | – |
| – | N#Cc1nc2cccc(NC(=O)c3ccccc3)c2o1 [Compound 27] | stable ^c (relative absorbance difference for the compound in the buffer was below 0.1) | – |
| stable | CC(C)C[C@H](NC(=O)CCn1c(C#N)nc2ccc(Cl)cc21)B1O[C@@H]2C[C@@H]3C[C@@H](C3(C)C)[C@]2(C)O1 [Compound 37] | intermediate (between 0.1–0.2) | β5 (RA [%]) at 10 µM (β5 subunit of human cCP): 14 ± 1% ^e; IC50 (β5i subunit of human iCP): 1.6 ± 1.3 µM |
| – | N#Cc1nc2cccc(N)c2o1 [Compound 23] | stable ^c (relative absorbance difference for the compound in the buffer was below 0.1) | – |
| unstable | N#Cc1nc2c([N+](=O)[O-])cccc2o1 [Compound 16] | intermediate (between 0.1–0.2) | – |
| unstable ^b,c | CC(C)C[C@H](NC(=O)Cn1c(C#N)nc2ccccc21)B(O)O [Compound 33] | unstable ^b,c (above 0.2) | – |
| – | N#Cc1nc2ccc([N+](=O)[O-])cc2o1 [Compound 18] | unstable ^c (above 0.2) | – |
| stable | CC(C)C[C@H](NC(=O)CCCCn1c(C#N)nc2ccccc21)B1O[C@@H]2C[C@@H]3C[C@@H](C3(C)C)[C@]2(C)O1 [Compound 32] | intermediate (between 0.1–0.2) | IC50 (β5 subunit of human cCP): 1.6 ± 0.8 µM; IC50 (β5i subunit of human iCP): 13 ± 2 µM |
| unstable ^b,c | CC(C)C[C@H](NC(=O)Cn1c(C#N)nc2ccccc21)B1O[C@@H]2C[C@@H]3C[C@@H](C3(C)C)[C@]2(C)O1 [Compound 29] | unstable ^b,c (above 0.2) | – |
| stable ^c,d | COc1ccc2oc(C#N)nc2c1 [Compound 7] | stable ^c,d (relative absorbance difference for the compound in the buffer was below 0.1) | RA (%) at 10 µM, β5i (β5i subunit of human iCP): 84 ± 11%; RA (%) at 10 µM, β5i (β5i subunit of human iCP; listed as 5-OMe): 84%; Group efficiency (GE) (β5i subunit of human iCP): 0.01; half-life at 250 µM (GSH): < 3 min |
| – | N#Cc1nc2cccc([N+](=O)[O-])c2o1 [Compound 19] | stable ^c (relative absorbance difference for the compound in the buffer was below 0.1) | RA (%) at 10 µM, β5i (β5i subunit of human iCP): 82 ± 2% |
| – | CC(C)C[C@H](NC(=O)CCCCn1c(C#N)nc2ccccc21)B(O)O [Compound 36] | stable ^b (relative absorbance difference for the compound in the buffer was below 0.1) | β2i (RA [%]) (β2i subunit of human iCP; Table 6): NA (NA, Not active (RA above 95%)); IC50 (β5 subunit of human cCP): 6.4 ± 2.6 µM; IC50 (β5i subunit of human iCP): 59 ± 7 µM; β2 (RA [%]) (β2 subunit of human cCP; Table 6): NA (NA, Not active (RA above 95%)); IC50 (β1i subunit of human iCP): 4.9 ± 0.4 µM; IC50 (β1 subunit of human cCP; 30 min pre-incubation): 23 ± 6 µM |
| – | N#Cc1nc2ccc(O)cc2o1 [Compound 12] | intermediate ^c (between 0.1–0.2) | – |
| – | N#Cc1nc2c(N)cccc2o1 [Compound 20] | stable ^c (relative absorbance difference for the compound in the buffer was below 0.1) | – |

| Compound | Stability in Buffer (HPLC-based assay) [2] | Stability in Buffer (UV-Vis-based assay) [1] | further results |
| --- | --- | --- | --- |
| N#Cc1nc2ccc(NC(=O)c3ccccc3)cc2o1 [Compound 26] | stable | unstable (above 0.2) | – |
| N#Cc1nc2cc(NC(=O)c3ccccc3)ccc2o1 [Compound 25] | stable ^c,d | stable ^c,d (relative absorbance difference for the compound in the buffer was below 0.1) | – |
